Assay results published in publication PMC4725915, “Ruthenium(II) Complexes with 2-Phenylimidazo[4,5-f][1,10]phenanthroline Derivatives that Strongly Combat Cisplatin-Resistant Tumor Cells” (Scientific Reports, 2016).

How the values were obtained:
Format in all cases: cell-based, human
[1] = test system: A549R MCTSs; test: Cytotoxicity test on 3D MCTSs (Cell TiterGlo ATP); settings: A549R MCTSs (~400 μm in diameter), 48 h
Method: (§1) MCTSs were cultured using the liquid overlay method. A549R cells in the exponential growth phase were dissociated by a trypsin/EDTA solution to gain single-cell suspensions. A number of 3000 diluted A549R cells were transferred to 1.5% agarose-coated transparent 96-well plates with 200 μL of DMEM containing 10% serum. The single cells formed MCTS aggregates approximately 400 μm in diameter after three days with 5% CO2 and 20% O2 at 37 °C. After formation of the MCTSs, each MCTS in a 96-well plate was imaged with a phase contrast microscope (Zeiss Axio Observer D1, Germany) using 10× objective to monitor their color, integrity, diameter, and volume.
A549R MCTSs (diameters ≈400 μm) were treated by carefully replacing 50% of the medium with drug-supplemented standard medium using an eight-channel pipet. In parallel, 50% of the medium containing solvent was replaced with solvent-free medium for the untreated MCTSs. Three A549R MCTSs were treated per condition and drug concentration; the DMSO volume was less than 1% (v/v). The MCTSs were then allowed to incubate for another 48 h. The cytotoxicities of the Ru(II) complexes toward the MCTSs were measured using ATP concentrations with a Cell TiterGlo kit (Promega). After 30 min of incubation, the MCTSs were carefully transferred into black-sided, flat-bottomed 96-well plates (Corning) and mixed with a pipet for luminescence measurements on an Infinite M200 PRO instrument (TECAN).

[2] = test system: TrxR; test: Western blot of TrxR expression in A549R cells; settings: different concentrations, 12 h
Text: The elevated levels of TrxR in cancers, especially in non-small cell lung cancers, are responsible for drug resistance. The thioredoxin system has a significant influence on intracellular physiological processes, such as antioxidant defense, cell functions, cell apoptosis and cell proliferation. TrxR has previously been identified as a drug target. […] In addition, the expression levels of TrxR in A549R cells in response to the addition of complex 4 were also examined by Western blot analysis.
A549R cells were seeded into 10 cm tissue culture dishes (Corning), incubated for 24 h, and treated with complex 4 for 12 h. The cells were washed with ice-cold PBS and lysed by incubation in radio immune precipitation assay buffer (RIPA) and a protease inhibitor cocktail (Sigma) for 30 min on ice. The lysates were centrifuged at 15000 rpm for 15 min at 4 °C, and the protein concentrations were quantified by a BCA protein assay reagent kit (Sigma). The proteins were separated on precast NuPAGE 4% to 12% polyacrylamide gradient Bis–Tris gels (Invitrogen) under denaturing conditions, transferred to PVDF membranes (Invitrogen), and subjected to Western blot analyses. […] The bound immune complexes were detected using an ECL prime Western blot detection reagent (Amersham Inc., USA). […]

[3] = test system: A549R MCTSs; test: Growth inhibition of drug-treated MCTSs (size by imaging); settings: 1.0 and 2.0 μM
Text: Traditional research on the efficacy of cancer drugs is usually performed in two-dimensional (2-D) cell cultures, which may not be a true indicator of the in vivo effectiveness of cancer treatments. This is in part due to the absence of cell-cell or cell-extracellular matrix interactions in 2-D cell models. Therefore, the development of cell culture models that can close the gap between conventional 2-D cell experiments and animal studies is necessary to study the cytotoxicity and anti-proliferative activities of drugs. Multicellular tumor spheroids (MCTSs) are heterogeneous cellular aggregates that have properties of solid tumors, such as nutrient and oxygen gradients, hypoxic/necrotic regions, cell-cell matrix interactions, and gene expression.
as §1, with “After formation of the MCTSs, each MCTS in a 96-well plate was imaged with a phase contrast microscope (Zeiss Axio Observer D1, Germany) using 10× objective to monitor their color, integrity, diameter, and volume.” left out

[4] = test system: A549R cells; test: Intracellular ROS (DCFH-DA staining); settings: 0.5 μM, 12 h
Method: TrxR is a key enzyme in the regulation of the intracellular redox environment. However, cellular oxidative stress is known to trigger the initiation of apoptotic signaling, which results in cell death. Complex 4 was proven to inhibit the activity of TrxR and could induce severe oxidative stress in A549R cells. To assess the capacity of complex 4 to generate intracellular reactive oxygen species (ROS), A549R cells were treated with different concentrations of complex 4 for 12 h and stained with 2′,7′-dichlorofluorescein diacetate (DCFH-DA)[46]. DCFH-DA is an oxidation-sensitive dye that is specifically detected by measuring the enhanced green fluorescent intensity caused by intracellular ROS. This dye was used to quantify the generation of intracellular ROS. […] These findings were further confirmed with flow cytometric analyses (Fig. 5d).
The generation of reactive oxygen species (ROS) in A549R cells was measured using a ROS sensitive fluorescent probe, 2,7-dichlorodihydrofluorescein diacetate (DCFH-DA). […] The levels of intracellular ROS were examined with an inverted fluorescence microscope (Zeiss Axio Observer D1) and flow cytometry (FACSCanto II, BD Biosciences, USA). The excitation wavelength was 485 nm, and the fluorescence was measured at 530 nm. […]

Question: Which IC50 [1] does the source give for Ru(phen)(bzq)(tbtfpip)(PF6) [Complex 4] here?
Answer: Its IC50 is 1800 ± 300 nM.

Question: What about the “expression levels of TrxR” value [2] of the same substance?
Answer: Its value is “downregulated”.

Question: And the “change in size of A549R MCTSs” value [3]?
Answer: The value was “decreased in size over time”.

Question: What about the “intracellular ROS levels” value [4] of the same substance?
Answer: Its value is “increase in ROS”.
